Results on 1 compound are retold here after patent US6214882A, “Benzenesulphonamide derivatives, preparation thereof and therapeutical uses thereof” (Synthelabo, priority 1995, dated 2001).

Test [1] concerns urethral smooth muscles. In words: in vitro contraction of rabbit urethra rings. The test is classed as cell-based. As to conditions: Oryctolagus cuniculus, read-out: urethral pD2 (converted). As for the experimental part:
(§1) The in vitro activity of the compounds of the invention was studied on urethral and arterial smooth muscles.
(§2) These experiments were carried out on female New Zealand rabbits weighing from 3 to 3.5 kg. The animals were killed by vertebral dislocation, and rings of tissue were then removed from mesenteric arteries and from the urethra. These rings of tissue were immersed in a modified Krebs solution and oxygenated with a mixture of 95% O2 and 5% CO2. Each sample of tissue was subjected to a tension of 1 g, phenylephrine was then introduced at cumulative doses and the dose/response curve was established. After rinsing of the samples, the test compound was introduced at cumulative doses and the dose/response curve was established. The α1 -adrenergic effect of each compound is evaluated by calculating the pD2 (negative logarithm of the concentration of antagonist in the presence of which the effect of a dose of the agonist is divided by 2), as well as by the maximum effect representing the percentage of the maximum contraction obtained with phenylephrine (% Emax)

Test [2] deals with arterial smooth muscles. In words: in vitro contraction of rabbit mesenteric artery rings. Format: cell-based. Particulars: Oryctolagus cuniculus, read-out: arterial pD2 (converted). As for the experimental part: as §1, §2

As to `CNC[C@H](O)c1cccc(O)c1` [phenylephrine], the EC50 in test [1] and in test [2] was 3.16 to 6.31 µM throughout.
